Source: US12636297B2, “Boronic acid derivatives and therapeutic uses thereof” (priority 2019, dated 2026)
Read-outs that look alike come from different tables or passages of the source.

Legend:
[1] = system: carbapenem resistant Acinetobacter baumannii; experiment: MIC of antibiotics with Compound 1 against panel of 503 carbapenem resistant Acinetobacter baumannii clinical isolates; format: cell-based; details: for MIC50 / MIC90: carbapenem resistant Acinetobacter baumannii (N = 503), antibiotic alone
Method: In another experiment, various antibiotics, meropenem, cefepime, ceftolozane and cefiderocol, were tested in combination with Compound 1 at 4 μg/ml and 8 μg/ml against the panel of 503 clinical isolates of carbapenem resistant Acinetobacter baumannii. […] Cefiderocol was tested at standard conditions, in […] media.

P. aeruginosa = experiment: Susceptibility testing of 262 P. aeruginosa strains with meropenem MIC >2 μg/mL; format: cell-based, Pseudomonas aeruginosa; details: Compound 1 at 8 μg/mL; for % of susceptible organisms at breakpoints: breakpoints ≤8 μg/mL meropenem and cefepime, ≤4 μg/mL ceftolozane, ≤16 μg/mL piperacillin
Method: (§1) In addition, 509 Carbapenem-Resistant Enterobacteriaceae were tested with meropenem, cefepime, and ceftolozane alone and in combination with Compound 1 at 8 μg/mL. Furthermore, 262 strains of P. aeruginosa with a meropenem MIC>2 μg/mL were tested with meropenem, ceftolozane, cefepime and piperacillin alone and in combination with Compound 1 at 8 μg/mL.
262 strains of P. aeruginosa having a meropenem MIC greater than 2 μg/mL were tested with meropenem, ceftolozane, cefepime and piperacillin alone and Compound 1 at 8 μg/mL.

[2] = system: carbapenem resistant Enterobacteriaceae (CRE); experiment: MIC of antibiotics with Compound 1 against panel of 510 CRE clinical isolates; format: cell-based; details: for MIC50 / MIC90: antibiotic alone
Method: In this example, the antibiotics meropenem, cefepime, ceftolozane and cefiderocol, were tested in combination with Compound 1 at 4 μg/ml and 8 μg/ml against a panel of 510 clinical isolates representing various types of carbapenem resistant Enterobacteriaceae (CRE). Cefiderocol was tested at standard conditions, in […] media.

[3] = system: Pseudomonas aeruginosa (PA); experiment: Broth microdilution MIC of β-lactams alone and with Compound 1 against Pseudomonas aeruginosa clinical isolates (representative and challenge panels); format: cell-based; details: for Minimum Inhibitory Concentration Distribution, % of isolates: representative panel of PA (N = 500), without Compound 1, AVI and TAZ at 4 μg/mL; for % susceptible, [S] / MIC50 / MIC90: Compound 1, AVI, and TAZ at fixed 4 μg/mL; for % susceptible, [S]: breakpoints MER ≤8, TOL ≤4, CAZ ≤8 μg/mL; for MIC50 / MIC90: Pseudomonas aeruginosa
Method: (§2) In this example the in vitro activity of Compound 1 was evaluated in combination with several β-lactams including sulbactam, meropenem, and ceftolozane against clinical isolates of carbapenem-resistant (CR) Acinetobacter baumannii (AB) and Pseudomonas aeruginosa (PA).

[4] = system: carbapenem-resistant (CR) Acinetobacter baumannii (AB); experiment: Broth microdilution MIC of β-lactams alone and with Compound 1 against carbapenem-resistant Acinetobacter baumannii clinical isolates; format: cell-based; details: for % susceptible, [S]: breakpoints MER ≤8 μg/mL, TOL ≤4 μg/mL; for MIC: SUL alone
Method: as §2

[5] = system: Carbapenem-Resistant Enterobacteriaceae; experiment: MIC distribution for 509 Carbapenem-Resistant Enterobacteriaceae (FIG. 2); format: cell-based; details: Compound 1 at 8 μg/mL
Method: as §1
The MIC distribution of combinations of Compound 1 with meropenem, cefepime and cetolozane alone, or with Compound 1 at 8 μg/mL for Carbapenem-Resistant Enterobacteriaceae were tested.

[6] = non-carbapenemase producing CRE, N = 45
[7] = CRAB (300), Compound 1 at fixed 4 μg/mL

Q: How did the MIC50 [1] turn out when `CO/N=C(\C(=O)N[C@@H]1C(=O)N2C(C(=O)[O-])=C(C[N+]3(C)CCCC3)CS[C@H]12)c1csc(N)n1` [FEP, cefepime] was run?
A: > 32 µg/mL

Q: And the MIC90 [1]?
A: > 32 µg/mL

Q: What about the “% of susceptible organisms at breakpoints” value (“% of susceptible organisms” for short) (P. aeruginosa; All strains (N = 262), meropenem MIC >2 μg/mL) of the same compound?
A: 20%

Q: And the “% of susceptible organisms” value (P. aeruginosa; MBL (N = 56))?
A: 4%

Q: What about the “% of susceptible organisms” value (P. aeruginosa; No MBL (N = 206)) of the same compound?
A: 24%

Q: What about the MIC50 ([2]; CRE KPC, N = 168) of the same compound?
A: 32 µg/mL

Q: What about the MIC90 ([2]; CRE KPC, N = 168) of the same compound?
A: > 32 µg/mL

Q: And the MIC50 ([2]; CRE MBL, N = 145)?
A: > 32 µg/mL

Q: What about the MIC90 ([2]; CRE MBL, N = 145) of the same compound?
A: > 32 µg/mL

Q: And the MIC50 ([2]; CRE OXA, N = 152)?
A: > 32 µg/mL

Q: What about the MIC90 ([2]; CRE OXA, N = 152) of the same compound?
A: > 32 µg/mL

Q: And the MIC50 [2, 6]?
A: > 32 µg/mL

Q: And the MIC90 [2, 6]?
A: > 32 µg/mL

Q: Which MIC50 [1] does the source give for `CC(C)(O/N=C(\C(=O)N[C@@H]1C(=O)N2C(C(=O)[O-])=C(C[N+]3(CCNC(=O)c4ccc(O)c(O)c4Cl)CCCC3)CS[C@H]12)c1csc(N)n1)C(=O)O` [DER, cefiderocol] here?
A: 1 µg/mL

Q: What about the MIC90 [1] of the same compound?
A: 32 µg/mL

Q: And the MIC50 ([2]; CRE KPC, N = 168)?
A: 2 µg/mL

Q: And the MIC90 ([2]; CRE KPC, N = 168)?
A: 32 µg/mL

Q: What about the MIC50 ([2]; CRE MBL, N = 145) of the same compound?
A: 8 µg/mL

Q: And the MIC90 ([2]; CRE MBL, N = 145)?
A: > 32 µg/mL

Q: What about the MIC50 ([2]; CRE OXA, N = 152) of the same compound?
A: 1 µg/mL

Q: And the MIC90 ([2]; CRE OXA, N = 152)?
A: 8 µg/mL

Q: What about the MIC50 [2, 6] of the same compound?
A: 2 µg/mL

Q: And the MIC90 [2, 6]?
A: 32 µg/mL

Q: Which MIC50 [1] does the source give for `Cn1c(N)c(NC(=O)NCCN)c[n+]1CC1=C(C(=O)O)N2C(=O)[C@@H](NC(=O)/C(=N\OC(C)(C)C(=O)[O-])c3nsc(N)n3)[C@H]2SC1` [TOL, ceftolozane] here?
A: > 32 µg/mL

Q: What about the MIC90 [1] of the same compound?
A: > 32 µg/mL

Q: What about the MIC50 ([2]; CRE KPC, N = 168) of the same compound?
A: > 32 µg/mL

Q: What about the MIC90 ([2]; CRE KPC, N = 168) of the same compound?
A: > 32 µg/mL

Q: And the MIC50 ([2]; CRE MBL, N = 145)?
A: > 32 µg/mL

Q: And the MIC90 ([2]; CRE MBL, N = 145)?
A: > 32 µg/mL

Q: What about the MIC50 ([2]; CRE OXA, N = 152) of the same compound?
A: > 32 µg/mL

Q: And the MIC90 ([2]; CRE OXA, N = 152)?
A: > 32 µg/mL

Q: What about the MIC50 [2, 6] of the same compound?
A: > 32 µg/mL

Q: And the MIC90 [2, 6]?
A: > 32 µg/mL

Q: What about the “Minimum Inhibitory Concentration Distribution, % of isolates” value ([3]; MIC 0.125 μg/mL) of the same compound?
A: 0.2%

Q: And the “Minimum Inhibitory Concentration Distribution, % of isolates” value ([3]; MIC 0.25 μg/mL)?
A: 2.8%

Q: And the “Minimum Inhibitory Concentration Distribution, % of isolates” value ([3]; MIC 0.5 μg/mL)?
A: 56.2%

Q: And the “Minimum Inhibitory Concentration Distribution, % of isolates” value ([3]; MIC 1 μg/mL)?
A: 77.4%

Q: What about the “Minimum Inhibitory Concentration Distribution, % of isolates” value ([3]; MIC 2 μg/mL) of the same compound?
A: 85.2%

Q: And the “Minimum Inhibitory Concentration Distribution, % of isolates” value ([3]; MIC 4 μg/mL)?
A: 90.4%

Q: And the “Minimum Inhibitory Concentration Distribution, % of isolates” value ([3]; MIC 8 μg/mL)?
A: 92.2%

Q: What about the “Minimum Inhibitory Concentration Distribution, % of isolates” value ([3]; MIC 16 μg/mL) of the same compound?
A: 93.0%

Q: And the “Minimum Inhibitory Concentration Distribution, % of isolates” value ([3]; MIC 32 μg/mL)?
A: 93.2%

Q: And the “Minimum Inhibitory Concentration Distribution, % of isolates” value ([3]; MIC >32 μg/mL)?
A: 100.0%

Q: What about the “Minimum Inhibitory Concentration Distribution, % of isolates” value ([3]; MIC ≤0.06 μg/mL) of the same compound?
A: 0.2%

Q: What about the “% susceptible, [S]” value ([3]; PA (CAZ-AVI MIC >8) (37)) of the same compound?
A: (18.2) %

Q: And the “% susceptible, [S]” value ([3]; PA (Challenge, 652))?
A: (44.0) %

Q: And the “% susceptible, [S]” value ([3]; PA (MER MIC >2) (612))?
A: (56.2) %

Q: And the “% susceptible, [S]” value ([3]; PA (Representative, 500))?
A: (90.4) %

Q: What about the “% susceptible, [S]” value ([3]; PA (TOL-TAZ MIC >4) (39)) of the same compound?
A: (3.3) %

Q: And the MIC50 ([3]; PA (CAZ-AVI MIC >8) (37))?
A: > 32 µg/mL

Q: What about the MIC90 ([3]; PA (CAZ-AVI MIC >8) (37)) of the same compound?
A: > 32 µg/mL

Q: What about the MIC50 ([3]; PA (Challenge, 652)) of the same compound?
A: 16 µg/mL

Q: What about the MIC90 ([3]; PA (Challenge, 652)) of the same compound?
A: > 32 µg/mL

Q: What about the MIC50 ([3]; PA (MER MIC >2) (612)) of the same compound?
A: 4 µg/mL

Q: And the MIC90 ([3]; PA (MER MIC >2) (612))?
A: > 32 µg/mL

Q: And the MIC50 ([3]; PA (Representative, 500))?
A: 0.5 µg/mL

Q: What about the MIC90 ([3]; PA (Representative, 500)) of the same compound?
A: 4 µg/mL

Q: And the MIC50 ([3]; PA (TOL-TAZ MIC >4) (39))?
A: > 32 µg/mL

Q: What about the MIC90 ([3]; PA (TOL-TAZ MIC >4) (39)) of the same compound?
A: > 32 µg/mL

Q: And the “% susceptible, [S]” value ([4]; AB CP (100), defined carbapenemases, Compound 1 at fixed 4 μg/mL)?
A: (0.0) %

Q: What about the MIC50 ([4]; Acinetobacter baumannii, AB CP (100), defined carbapenemases, Compound 1 at fixed 4 μg/mL, read-out: MIC50) of the same compound?
A: > 32 µg/mL

Q: What about the MIC90 ([4]; Acinetobacter baumannii, AB CP (100), defined carbapenemases, Compound 1 at fixed 4 μg/mL, read-out: MIC90) of the same compound?
A: > 32 µg/mL

Q: What about the MIC50 [4, 7] of the same compound?
A: >32/>32 μg/mL

Q: What about the MIC90 [4, 7] of the same compound?
A: >32/>32 μg/mL

Q: And the “% susceptible, [S]” value [4, 7]?
A: (1.3) %

Q: How did the “Effect on potency of antibiotics” value ([1]; Compound 1 at 4 and 8 μg/ml, 503 carbapenem resistant A. baumannii isolates) turn out when `O=C(O)c1c(F)ccc2c1OB(O)[C@@H]1C[C@H]21` [Compound 1, 5-Fluoro-2-hydroxy-1a,7b-dihydro-1H-cyclopropa[c][1,2]benzoxaborinine-4-carboxylic acid] was run?
A: significantly enhances the potency of meropenem and cefiderocol

Q: What about the “Effect on proportion of susceptible P. aeruginosa” value (P. aeruginosa; 262 strains with meropenem MIC >2 μg/mL) of the same compound?
A: increased the proportion of susceptible organisms for all tested agents

Q: And the “Effect on potency of meropenem, cefepime and ceftolozane (MIC distribution, FIG. 2)” value [5]?
A: significantly increased potency of all tested antibiotics

Q: And the “Effect on MIC90 of antibiotics” value ([2]; Compound 1 at 4 and 8 μg/ml, 510 CRE clinical isolates)?
A: shifted MIC90 of all antibiotics (except ceftolozane tested against metallo beta-lactamases, MBL) into susceptible range

Q: What does the source list for `CC1(C)[C@H](C(=O)O)N2C(=O)C[C@H]2S1(=O)=O` [SUL, sulbactam]?
A: MIC50 ([4]; Acinetobacter baumannii): > 32 µg/mL; MIC90 ([4]; Acinetobacter baumannii): > 32 µg/mL; MIC ([4]; Acinetobacter baumannii, read-out: Minimum Inhibitory Concentration, AB1144 (NDM-1)): > 64 µg/mL; MIC ([4]; Acinetobacter baumannii, read-out: Minimum Inhibitory Concentration, AB1192 (OXA-24, OXA-72)): 32 µg/mL; MIC ([4]; Acinetobacter baumannii, read-out: Minimum Inhibitory Concentration, AB1223 (OXA-72)): 4 µg/mL; MIC ([4]; Acinetobacter baumannii, read-out: Minimum Inhibitory Concentration, AB1227 (OXA-23)): 64 µg/mL; MIC ([4]; Acinetobacter baumannii, read-out: Minimum Inhibitory Concentration, AB1244 (OXA-23)): 64 µg/mL; MIC ([4]; Acinetobacter baumannii, read-out: Minimum Inhibitory Concentration, AB1291 (KPC-2)): > 64 µg/mL; MIC ([4]; Acinetobacter baumannii, read-out: Minimum Inhibitory Concentration, AB1307 (OXA-23)): 32 µg/mL; MIC ([4]; Acinetobacter baumannii, read-out: Minimum Inhibitory Concentration, AB1333 (OXA-239)): 16 µg/mL; MIC ([4]; Acinetobacter baumannii, read-out: Minimum Inhibitory Concentration, AB1358 (NDM-1)): > 64 µg/mL; MIC ([4]; Acinetobacter baumannii, read-out: Minimum Inhibitory Concentration, AB1359 (NDM-1)): > 64 µg/mL
